# Columns and labels:
# [1] = system: Huh7 cells induced with inflammatory response; test: Protein expression levels in liver cells induced with inflammatory response (western blot); type: cell-based; settings: Huh7 cells pretreated with 10 ng/ml IL-1β; 0.5, 2.5, 10 μM, 24 hours; FIG. 11
# Protocol: To induce steatosis in Huh-7 cells in each well except for control cells, the Huh-7 cells were pretreated with 10 ng/ml IL-1p for 2 hr except for the control.
# The cells in each well were treated with the compound of the present invention, BW-3290, 0.5 μM, 2.5 μM, and 10 μM and then cultured for 24 hours. All media were aspirated and the cells were gently washed 3 times with cold PBS.
# A cold lysis buffer containing 150 mM sodium chloride (NaCl), 5 mM ethylenediaminetetraacetic acid (EDTA), pH 8.0, […] 4-(2-hydroxyethyl)-1-piperazineethanesulfonic acid (HEPES), 1% nonylphenoxypolyethoxylethanol (NP-40), 2 μg/mL aprotinin, 1 μM pepstatin A, 10 μM leupeptin, 1 mM sodium fluoride (NaF), 0.2 mM sodium orthovanadate ([…]), and 1 μM phenylmethylsulfonyl fluoride (PMSF) was added thereto.
# A whole cell lysate was collected and gently pipetted at least 10 times to ensure complete lysis. The sample was incubated on ice for 20 minutes and centrifuged 4° C. at 13,000 rpm, for 20 minutes. The supernatant was collected, 5× sodium dodecyl sulfate (SDS) sample buffer containing 50 mM Tris-CI (pH 6.8), 2% SDS, 0.1% bromopheol blue, and 10% glycerol was added to the sample, and boiled at 95° C. for 5 minutes. […]
# Images were acquired using an ImageQuant LAS 3000 (Fujifilm, Tokyo, Japan). Data were analyzed.
# [2] = Pharmacokinetic parameters after oral administration; type: in vivo, Sprague Dwaley (SD) rats; settings: male SD rats, 10 mg/kg, FIG. 16
# Protocol: An experiment was performed to measure the pharmacokinetic parameters of BW-3290 using three male Sprague Dwaley (SD) rats. As for BW-3290, a formulation with a composition of 95% water containing 5% DMSO and 20% HPbCD was used, and was orally administered at a concentration of 10 mg/kg. Blood samples were collected from the jugular vein at time points of 0.25, 0.5, 1, 4, 8, 10, 12, and 24 hours. The blood samples collected were centrifuged for 15 minutes at 4° C. at 2,500×g to secure plasma. Bioanalysis for the measurement of pharmacokinetic parameters was analyzed by LC-MS/MS.
structure (smiles),measurement,setting,value
"CC(C)C(Nc1ncnc2nc[nH]c12)c1nc2cccc(Cl)c2c(=O)n1-c1ccccc1 (centres unmarked) [BW-3290, 2-(1-((7H-purin-6-yl)amino)-2-methylpropyl)-5-chloro-3-phenylquinazolin-4(3H)-one]",protein expression level of p-IKKα,[1],decreased in a concentration-dependent manner
same,protein expression level of p-NFκ,[1],decreased in a concentration-dependent manner
same,AUClast,[2],excellent
same,Cmax,[2],excellent
same,concentration after 12 hours after absorption,[2]; plasma,maintained to some extent

# Source: US20230097253A1, “NOVEL QUINAZOLINE COMPOUND AS THERAPEUTIC AGENT FOR METABOLIC DISORDERS” (BIOWAY., INC, priority 2020, published 2023)
